Among the data in US9969687B2, “Compounds useful as CCR9 modulators” (Norgine B.V., priority 2013, dated 2018) are Ki values, retold here.

Test [1] concerns the target T1, CCR9 (Homo sapiens (Human), UniProt P51686). Nature of the test: FLIPR calcium flux assay using MOLT4 cells, TECK stimulation. The test is classed as cell-based. Conditions: MOLT4 cells (human T-cell line). On the procedure: Biological Activity: FLIPR Assay Using MOLT4 Cells
A calcium flux assay was used to determine the ability of the compounds to interfere with the binding between CCR9 and its chemokine ligand (TECK) in MOLT4 cells (a human T-cell line). MOLT4 cells were seeded (100,000 cells/well) in corning cell culture plates (Cat #3603) in assay buffer (1×HBSS, 20 mM HEPES) containing 2.5 mM Probenecid. The plate was centrifuged at 1200 rpm for 3 minutes and incubated at 37° C./5% CO2 for 2 hours. A 0.3× Fluo-4 NW calcium dye was prepared in assay buffer containing 5 mM Probenecid and stored in the dark. Each well was loaded with 25 μl of 0.3× Fluo-4 NW calcium dye and incubated at 37° C./5% CO2 for 60 minutes and then at room temperature for 30 minutes. A half-log serially diluted concentration response curve was prepared at a 4× concentration for each (10 μM-0.1 nM final assay concentration) and 25 μL of the compound then transferred to the cells (100 μL final volume) for 60 minutes prior to stimulation (30 minutes at 37° C./5% CO2 and 30 minutes at room temperature). […] The increased in intracellular calcium levels was measured with the FLIPR instrument. The potency of the compound as CCR9 antagonist was calculated as an IC50 using GraphPad Prism software (variable slope four parameter). The Ki of the compound was determined from the IC50 values using the following equation. IC50/1+(Agonist (TECK) conc. used in assay/EC50 of agonist (TECK) generated on day of experiment) Ki calculation: […]
A general note: Calcium assays in cells follow changes in intracellular calcium, usually with a dye or a luminescent sensor.

Test [2] concerns the target T1, CCR9. The experiment in a line: FLIPR calcium flux assay using hCCR9 over expressed cells (Chem1-hCCR9), TECK stimulation. In kind it is cell-based. The conditions noted are these: Chem1-hCCR9 overexpressing cells. On the procedure: Biological Activity: FLIPR Assay Using hCCR9 Over Expressed Cells
A calcium flux assay was used to determine the ability of the compounds to interfere with the binding between CCR9 and its chemokine ligand (TECK) in Chem1-hCCR9 overexpressing cells. hCCR9 overexpressing cells were seeded (25,000 cells/well) into black Poly-D-Lysine coated clear bottom 96-well plates (BD Biosciences, Cat #356640) and incubated overnight at 37° C./5% CO2 in a humidified incubator. Media was aspirated and cells washed twice with 100 μL assay buffer (1×HBSS, 20 mM HEPES) containing 2.5 mM Probenecid. A 0.3× Fluo-4 NW calcium dye was prepared in assay buffer containing 5 mM Probenecid and stored in the dark. Each well was loaded with 100 μL of 0.3× Fluo-4 NW calcium dye and incubated at 37° C./5% CO2 for 60 minutes and then at room temperature for 30 minutes. A half-log serially diluted concentration response curve was prepared at a 3× final assay concentration for each compound (10 μM-0.1 nM final assay concentration) and 50 μL of the compound then transferred to the cells (150 μL final volume) for 60 minutes prior to stimulation (30 minutes at 37° C./5% CO2 and 30 minutes at room temperature). TECK was diluted to 4× its EC80 in assay buffer (containing 0.1% [w/v] bovine serum albumin [BSA]) and 50 μL dispensed through the fluorometric imaging plate reader (FLIPR) instrument to stimulate the cells (200 μL final volume). The increase in intracellular calcium levels was measured with the FLIPR instrument. The potency of the compound as a CCR9 antagonist was calculated as an IC50 using GraphPad Prism software (variable slope four parameter). The Ki of the compound was determined from the IC50 values using the following equation. IC50/1+(Agonist (TECK) conc. used in assay/EC50 of agonist (TECK) generated on day of experiment) Ki calculation: […]

T1 sequence (P51686 whole entry): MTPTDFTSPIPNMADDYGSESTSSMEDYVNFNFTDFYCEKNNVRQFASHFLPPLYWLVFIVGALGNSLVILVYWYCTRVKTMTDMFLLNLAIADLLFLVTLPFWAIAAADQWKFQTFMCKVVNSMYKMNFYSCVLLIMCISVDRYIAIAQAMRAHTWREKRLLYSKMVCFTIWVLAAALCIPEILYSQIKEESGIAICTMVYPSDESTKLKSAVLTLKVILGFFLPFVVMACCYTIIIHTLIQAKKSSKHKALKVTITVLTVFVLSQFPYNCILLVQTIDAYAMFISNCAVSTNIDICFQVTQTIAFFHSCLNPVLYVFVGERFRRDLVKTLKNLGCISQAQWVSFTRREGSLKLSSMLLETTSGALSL

The term Ki denotes the dissociation constant of the complex between target and ligand, obtained from inhibition or displacement. In the case of `CC(C)(C)c1ccc(S(=O)(=O)Nc2cccc3c2C(=O)N(c2cccnc2)C3=O)cc1` [Compound 1, 4-tert-Butylphenylsulfonic acid (1,3-dioxo-2-(pyridin-3-yl)-2,3-dihydro-1H-isoindol-4-yl)-amide], the Ki at CCR9 [1] was 479 nM; on CCR9 [2], 1240 nM. For the compound `O=C1c2cccc(NS(=O)(=O)c3ccc(C(F)(F)F)cc3)c2C(=O)N1c1cccnc1` [Compound 6], the Ki at CCR9 [2] turned out to be 5630 nM. For `CC(C)(C)c1ccc(S(=O)(=O)Nc2ccc(Cl)c3c2C(=O)N(c2cccnc2)C3=O)cc1` [Compound 43, 4-(tert-butyl)-N-(7-chloro-1,3-dioxo-2-(pyridin-3-yl)isoindolin-4-yl)benzenesulfonamide], the Ki turned out to be 25 nM on CCR9 [1] and 42 nM on CCR9 [2]. Consider `CC(C)(C)c1ccc(S(=O)(=O)Nc2ccc(Cl)c3c2C(=O)N(c2ccc[n+]([O-])c2)C3=O)cc1` [Compound 44, 3-(4-(4-(tert-butyl)phenylsulfonamido)-7-chloro-1,3-dioxoisoindolin-2-yl)pyridine 1-oxide], for which the Ki at CCR9 [1] came out at 16 nM; at CCR9 [2], 179 nM.

As to `O=C1c2c(Cl)ccc(NS(=O)(=O)c3ccc(OC(F)(F)F)cc3)c2C(=O)N1c1cccnc1` [Compound 45], the Ki at CCR9 [1] was found to be 52 nM; on CCR9 [2], 314 nM. As for `O=C1c2c(Cl)ccc(NS(=O)(=O)c3ccc(C(F)(F)F)cc3)c2C(=O)N1c1cccnc1` [Compound 47], the Ki on CCR9 [1] was determined as 34 nM; on CCR9 [2], 309 nM. In the same order, the values of `CC(C)(C)c1ccc(S(=O)(=O)Nc2ccc(Cl)c3c2C(=O)N(Cc2cccnc2)C3=O)cc1` [Compound 64, 4-(tert-butyl)-N-(7-chloro-1,3-dioxo-2-(pyridin-3-ylmethyl)isoindolin-4-yl)benzenesulfonamide] are 22 nM and 27 nM. For `CC(C)(C)c1ccc(S(=O)(=O)Nc2ccc(Cl)c3c2C(=O)N(Cc2ccc[n+]([O-])c2)C3=O)cc1` [Compound 65, 3-((4-(4-(tert-butyl)phenylsulfonamido)-7-chloro-1,3-dioxoisoindolin-2-yl)methyl)pyridine 1-oxide], in that order: 13 nM and 74 nM.

For `O=C1c2c(Cl)ccc(NS(=O)(=O)c3ccc(C(F)(F)F)cc3)c2C(=O)N1Cc1cccnc1` [Compound 66], the results for the Ki on CCR9 [1] and on CCR9 [2] were 115 nM and 269 nM, respectively. In the same order, the values of `CC(C)(C)c1ccc(S(=O)(=O)Nc2ccc(C#N)c3c2C(=O)N(Cc2cccnc2)C3=O)cc1` [Compound 82, 4-(tert-butyl)-N-(7-cyano-1,3-dioxo-2-(pyridin-3-ylmethyl)isoindolin-4-yl)benzenesulfonamide] are 19 nM and 98 nM. For `COc1cncc(N2C(=O)c3c(Cl)ccc(NS(=O)(=O)c4ccc(C(C)(C)C)cc4)c3C2=O)c1` [Compound 90, 4-(tert-butyl)-N-(7-chloro-2-(5-methoxypyridin-3-yl)-1,3-dioxoisoindolin-4-yl)benzenesulfonamide], in that order: 22 nM and 174 nM. In the same order, the values of `CCOc1cncc(N2C(=O)c3c(Cl)ccc(NS(=O)(=O)c4ccc(C(C)(C)C)cc4)c3C2=O)c1` [Compound 103] are 128 nM and 242 nM. For `Cc1cncc(N2C(=O)c3c(Cl)ccc(NS(=O)(=O)c4ccc(C(C)(C)C)cc4)c3C2=O)c1` [Compound 104, 4-(tert-butyl)-N-(7-chloro-2-(5-methylpyridin-3-yl)-1,3-dioxoisoindolin-4-yl)benzenesulfonamide], the Ki on CCR9 [1] was 30 nM; on CCR9 [2], 239 nM. For `COc1ccncc1N1C(=O)c2c(Cl)ccc(NS(=O)(=O)c3ccc(C(C)(C)C)cc3)c2C1=O` [Compound 119], in that order: 2 nM and 35 nM.

Regarding `CC(C)(C)c1ccc(S(=O)(=O)Nc2ccc(Cl)c3c2C(=O)N(c2cccc(C#N)c2)C3=O)cc1` [Compound 120, 4-(tert-butyl)-N-(7-chloro-2-(3-cyanophenyl)-1,3-dioxoisoindolin-4-yl)benzenesulfonamide], the Ki at CCR9 [1] amounted to 74 nM; at CCR9 [2] it was 90 nM. For `N#Cc1cccc(N2C(=O)c3c(Cl)ccc(NS(=O)(=O)c4ccc(C(F)(F)F)cc4)c3C2=O)c1` [Compound 121], in that order: 192 nM and 337 nM. With `CC(C)(C)c1ccc(S(=O)(=O)Nc2ccc(Cl)c3c2C(=O)N(Cc2cccc(C#N)c2)C3=O)cc1` [Compound 126, 4-(tert-butyl)-N-(7-chloro-2-(3-cyanobenzyl)-1,3-dioxoisoindolin-4-yl)benzenesulfonamide], the values for the Ki on CCR9 [1] and on CCR9 [2] were 158 nM and 343 nM, respectively. In the same order, the values of `N#Cc1cccc(CN2C(=O)c3c(Cl)ccc(NS(=O)(=O)c4ccc(C(F)(F)F)cc4)c3C2=O)c1` [Compound 128] are 244 nM and 447 nM. For `N#Cc1cccc(CN2C(=O)c3c(Cl)ccc(NS(=O)(=O)c4ccc(F)c(C(F)(F)F)c4)c3C2=O)c1` [Compound 133], in that order: 220 nM and 158 nM. On to `CC(C)(C)c1ccc(S(=O)(=O)Nc2ccc(Cl)c3c2C(=O)N(c2cncs2)C3=O)cc1` [Compound 178], for which, on CCR9 [1], the Ki amounted to 164 nM. Still for that read-out and setting: with `COc1ccc(N2C(=O)c3c(Cl)ccc(NS(=O)(=O)c4ccc(C(C)(C)C)cc4)c3C2=O)c[n+]1[O-]` [Compound 180] the figure was 78 nM; with `CC(C)(C)c1ccc(S(=O)(=O)Nc2ccc(Cl)c3c2C(=O)N(c2ccc(F)nc2)C3=O)cc1` [Compound 187], 33 nM. The same measure, in the same setting: with `Cc1ccc(N2C(=O)c3c(Cl)ccc(NS(=O)(=O)c4ccc(C(C)(C)C)cc4)c3C2=O)c[n+]1[O-]` [Compound 205] the figure was 46 nM; with `CCOc1cccc(N2C(=O)c3c(Cl)ccc(NS(=O)(=O)c4ccc(C(C)(C)C)cc4)c3C2=O)[n+]1[O-]` [Compound 210], 44 nM; with `Cc1ccc(CN2C(=O)c3c(Cl)ccc(NS(=O)(=O)c4ccc(C(C)(C)C)cc4)c3C2=O)cn1` [Compound 215], 85 nM.

For the compound `Cc1cc(C)nc(N2C(=O)c3c(Cl)ccc(NS(=O)(=O)c4ccc(C(C)(C)C)cc4)c3C2=O)n1` [Compound 240], the Ki at CCR9 [1] amounted to 84 nM.

As for `CCOc1nc(C)ccc1CN1C(=O)c2c(Cl)ccc(NS(=O)(=O)c3ccc(C(C)(C)C)cc3)c2C1=O` [Compound 246], the Ki at CCR9 [1] is 125 nM. Still for that read-out and setting: as for `Cc1ccc(CN2C(=O)c3c(Cl)ccc(NS(=O)(=O)c4ccc(C(C)(C)C)cc4)c3C2=O)c(C)n1` [Compound 248], the figure is 70 nM; as for `Cc1ccc(CN2C(=O)c3c(Cl)ccc(NS(=O)(=O)c4ccc(C(C)(C)C)cc4)c3C2=O)c(C)[n+]1[O-]` [Compound 252], 33 nM; as for `COc1nc(C)ccc1CN1C(=O)c2c(Cl)ccc(NS(=O)(=O)c3ccc(C(C)(C)C)cc3)c2C1=O` [Compound 253], 41 nM.

As to `COc1ccc(N2C(=O)c3c(Cl)ccc(NS(=O)(=O)c4ccc(C(C)(C)C)cc4)c3C2=O)[n+]([O-])c1C` [Compound 265], the Ki at CCR9 [1] is 41 nM. Still for that read-out and setting: with `COc1cnc(N2C(=O)c3c(Cl)ccc(NS(=O)(=O)c4ccc(C(C)(C)C)cc4)c3C2=O)cc1C` [Compound 268] the figure was 54 nM. Regarding `COc1cc(CN2C(=O)c3c(Cl)ccc(NS(=O)(=O)c4ccc(C(C)(C)C)cc4)c3C2=O)ccn1` [Compound 273], on CCR9 [1], the Ki stood at 108 nM.

Consider `CC(C)(C)c1ccc(S(=O)(=O)Nc2ccc(C#N)c3c2C(=O)N(C2CCOCC2)C3=O)cc1` [Compound 277], for which, on CCR9 [1], the Ki amounted to 28 nM. Still for that read-out and setting: with `CC(C)(C)c1ccc(S(=O)(=O)Nc2ccc(C#N)c3c2C(=O)N(Cc2ccc[n+]([O-])c2)C3=O)cc1` [Compound 280] the figure was 37 nM; with `Cn1cc(N2C(=O)c3c(Cl)ccc(NS(=O)(=O)c4ccc(C(C)(C)C)cc4)c3C2=O)c(C(=O)O)n1` [Compound 289], 104 nM.
